Test results: article PMC5471928 (2017)

Tests used:
[1] = system: dsDNA (DNA, duplex) CAATCGGATCGAATTCGATCCGATTG; assay: UV-vis absorption titration; conditions: K+ 100 mM; 10 mM Tris-HCl pH 7.4; 5 µM c-exNDI; apparent
[2] = system: c-myc (DNA, G4) TGAGGGTGGGTAGGGTGGGTAA; assay: UV-vis absorption titration; conditions: K+ 100 mM; 10 mM Tris-HCl pH 7.4; 5 µM c-exNDI; apparent; main text prints error ± 0.3
[3] = system: ssDNA (DNA, single strand) GGATGTGAGTGTGAGTGTGAGG; assay: UV-vis absorption titration; conditions: K+ 100 mM; 10 mM Tris-HCl pH 7.4; 5 µM c-exNDI; apparent
[4] = system: c-kit2 (DNA, G4) CCCGGGCGGGCGCGAGGGAGGGGAGG; assay: fluorescence light-up; conditions: K+ 100 mM; 10 mM Tris-HCl pH 7.4; 5 µM each; quantum yield 0.13 against 0.08 free
[5] = system: TBA (DNA, G4) GGTTGGTGTGGTTGG; assay: UV-vis absorption titration; conditions: K+ 100 mM; 10 mM Tris-HCl pH 7.4; 5 µM c-exNDI; apparent
[6] = system: hTel22 (DNA, G4) AGGGTTAGGGTTAGGGTTAGGG; assay: UV-vis absorption titration; conditions: 10 mM Tris-HCl pH 7.4, 5 µM c-exNDI, apparent
[7] = system: hTel22 (DNA, G4) AGGGTTAGGGTTAGGGTTAGGG; assay: circular dichroism (induced CD); conditions: K+ 100 mM; 4 µM G4, 16 µM c-exNDI
[8] = system: c-kit1 (DNA, G4) AGGGAGGGCGCTGGGAGGAGGG; assay: UV-vis absorption titration; conditions: K+ 100 mM; 10 mM Tris-HCl pH 7.4; 5 µM c-exNDI; apparent
[9] = system: hTel22 (DNA, G4) AGGGTTAGGGTTAGGGTTAGGG; assay: fluorescence titration; conditions: K+ 100 mM; 10 mM Tris-HCl pH 7.4; 5 µM c-exNDI; apparent
[10] = system: HRAS (DNA, G4) TCGGGTTGCGGGCGCAGGGCACGGGCG; assay: UV-vis absorption titration; conditions: K+ 100 mM; 10 mM Tris-HCl pH 7.4; 5 µM c-exNDI; apparent; overall constant of 2:1 model

K1:1 [1]: 7.41±0.03x10^3 M^-1
K1:1 [2]: 3.43±0.03x10^7 M^-1
K1:1 [3]: 2.85±0.01x10^5 M^-1
binding [4]: yes
K1:1 [5]: 1.2±0.5x10^5 M^-1
K1:1 ([6]; K+ 100 mM): 5.37±0.06x10^6 M^-1
K1:2 ([6]; Na+ 100 mM, overall constant of 2:1 model): 3.0±0.3x10^11 M^-2
binding [7]: yes
K1:1 [8]: 4.82±0.04x10^6 M^-1
K1:1 [9]: 5.34±0.03x10^6 M^-1
K1:2 [10]: 3.0±0.3x10^10 M^-2
Structure (SMILES): CN(C)CCCn1c(=O)c2ccc3c(=O)n(CCCN(C)C)c(=O)c4c5[nH]c6ccccc6[nH]c5c(c1=O)c2c34
